Publication PMC11428108 (Frontiers in Molecular Neuroscience, 2024)
Counter-ions that a name gives are not always drawn.

How the values were obtained:
people = system: people; design: method as in Knight et al., 2009; settings: placebo approximately 9%; ref Knight et al., 2009; cited from earlier work
α4β2* nAChRs = system: α4β2* nAChRs; design: method as in earlier work; settings: agonist-induced signaling; ref Wang et al., 2015; Grupe et al., 2013; Appiani et al., 2024; Jin et al., 2014; read-out: EC50 on α4β2* nAChR signaling; cited from earlier work
rats = system: rats; design: method as in Maurer et al., 2017; settings: ref Maurer et al., 2017; cited from earlier work
[1] = biological target: human (α4)2(β2)2β2/α4 (α4β2*) nAChRs (Homo sapiens, UniProt P17787+P43681); experiment: FLEXstation membrane potential assay in HEK cells stably expressing α4β2* nAChRs; type: cell-based; settings: nicotine 0.001–50 μM, ±SEM
Description: (§1) Human embryonic kidney (HEK) cell lines stably expressing human (α4)2(β2)2β2/α4 (α4β2*) nAChRs, (α4)2(β2)2α5 nAChRs, (α4)2(β2)2β3 nAChRs, (α3)2(β4)2α3/β4 (α3β4*) nAChRs, (α3)2(β2)2α3/β2 (α3β2*) nAChRs, (α3)2(β4)2α5 nAChRs, or (α3)2(β2)2α5 nAChRs were maintained as described previously ([Wang et al., 2015]; [Kuryatov et al., 2005]; [Caligiuri et al., 2022]). The FLEXstation bench top scanning fluorometer from Molecular Devices was used to assay nAChR function in these cells, according to published protocols ([Wang et al., 2015]; [Kuryatov et al., 2005]). The membrane potential kit (Molecular Devices) was used according to the manufacturer’s protocols. Serial dilutions of SR9883 were manually added to the assay plate 15 min prior to recording. […] Compound dilutions were prepared in V-shaped 96-well plates (Fisher Scientific Co.) and added to cell culture wells at a rate of 20 μL s^−1 during recording. Cells were incubated at 29°C for 6–20 h prior to assays to upregulate nAChRs ([Wang et al., 2015]; [Kuryatov et al., 2005]). Data points were averaged from 3 to 4 responses from separate wells. Potency and efficacy were calculated using the Hill equation as described previously ([Wang et al., 2015]).
(§2) Concentration-response curves of SR9883 actions in nAChR-expressing HEK cells and oocytes were fitted to the Hill equation using a nonlinear least squares curve fit method and efficacy and potency values were calculated as previously described ([Wang et al., 2015]). Plasma and brain levels of SR9983 after oral administration were compared using a two-tailed paired t test. […] For the ICSS threshold experiment, percentages of baseline reward threshold scores were calculated by expressing the absolute threshold scores as a percentage of the scores obtained during baseline. The baseline values were the mean thresholds on the three sessions prior to drug injections. Response latency data were analyzed in the same manner as the threshold data. […] Effects of SR9883 on responding for food pellets in rats was analyzed by a two-tailed paired t test. […] Significant main or interaction effects in ANOVAs were followed by Bonferroni or Newman–Keuls post-hoc tests as appropriate. All statistical analyses were performed using GraphPad Prism software with α set to 0.05.

[2] = biological target: T1, human (α4)2(β2)2α5 nAChRs (Homo sapiens, UniProt P17787+P30532+P43681); experiment: FLEXstation membrane potential assay in HEK cells stably expressing (α4)2(β2)2α5 nAChRs; type: cell-based; settings: nicotine 0.001–50 μM, ±SEM
T1 construct: expressed in transfected cells
Description: as §1, §2

human (α4)2(β2)2β2/α4 (α4β2*) nAChRs, sequence (P43681 27-627): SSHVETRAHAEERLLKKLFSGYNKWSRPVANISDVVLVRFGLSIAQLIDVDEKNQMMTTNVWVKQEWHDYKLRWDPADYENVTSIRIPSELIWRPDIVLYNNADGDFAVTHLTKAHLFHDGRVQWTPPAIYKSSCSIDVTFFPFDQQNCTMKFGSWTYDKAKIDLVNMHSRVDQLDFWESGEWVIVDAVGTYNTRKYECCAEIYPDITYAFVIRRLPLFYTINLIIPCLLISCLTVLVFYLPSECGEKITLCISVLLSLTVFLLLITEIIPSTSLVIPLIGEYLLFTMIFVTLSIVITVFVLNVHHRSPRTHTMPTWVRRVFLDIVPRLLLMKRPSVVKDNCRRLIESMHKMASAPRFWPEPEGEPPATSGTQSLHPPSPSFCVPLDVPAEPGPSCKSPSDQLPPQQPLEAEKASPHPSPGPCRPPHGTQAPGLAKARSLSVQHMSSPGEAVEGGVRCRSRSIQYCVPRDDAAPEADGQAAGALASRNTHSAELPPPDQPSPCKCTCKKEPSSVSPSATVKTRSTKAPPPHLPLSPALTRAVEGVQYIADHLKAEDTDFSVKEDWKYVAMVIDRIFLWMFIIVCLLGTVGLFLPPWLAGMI
human (α4)2(β2)2β2/α4 (α4β2*) nAChRs, sequence (P17787 26-502): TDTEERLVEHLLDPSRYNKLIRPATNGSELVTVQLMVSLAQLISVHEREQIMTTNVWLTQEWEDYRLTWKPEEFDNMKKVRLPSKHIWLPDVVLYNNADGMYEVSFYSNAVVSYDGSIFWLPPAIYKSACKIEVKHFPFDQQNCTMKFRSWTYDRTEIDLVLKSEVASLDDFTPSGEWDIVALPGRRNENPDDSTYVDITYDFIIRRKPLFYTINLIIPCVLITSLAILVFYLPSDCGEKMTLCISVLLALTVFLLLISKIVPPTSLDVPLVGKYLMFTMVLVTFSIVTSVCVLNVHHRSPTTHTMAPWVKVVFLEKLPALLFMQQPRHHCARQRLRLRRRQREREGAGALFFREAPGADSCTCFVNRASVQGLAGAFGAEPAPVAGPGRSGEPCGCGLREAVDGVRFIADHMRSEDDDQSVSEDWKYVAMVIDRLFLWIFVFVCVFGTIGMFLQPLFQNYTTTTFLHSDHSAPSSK
T1 sequence (P43681 29-627 limits assumed): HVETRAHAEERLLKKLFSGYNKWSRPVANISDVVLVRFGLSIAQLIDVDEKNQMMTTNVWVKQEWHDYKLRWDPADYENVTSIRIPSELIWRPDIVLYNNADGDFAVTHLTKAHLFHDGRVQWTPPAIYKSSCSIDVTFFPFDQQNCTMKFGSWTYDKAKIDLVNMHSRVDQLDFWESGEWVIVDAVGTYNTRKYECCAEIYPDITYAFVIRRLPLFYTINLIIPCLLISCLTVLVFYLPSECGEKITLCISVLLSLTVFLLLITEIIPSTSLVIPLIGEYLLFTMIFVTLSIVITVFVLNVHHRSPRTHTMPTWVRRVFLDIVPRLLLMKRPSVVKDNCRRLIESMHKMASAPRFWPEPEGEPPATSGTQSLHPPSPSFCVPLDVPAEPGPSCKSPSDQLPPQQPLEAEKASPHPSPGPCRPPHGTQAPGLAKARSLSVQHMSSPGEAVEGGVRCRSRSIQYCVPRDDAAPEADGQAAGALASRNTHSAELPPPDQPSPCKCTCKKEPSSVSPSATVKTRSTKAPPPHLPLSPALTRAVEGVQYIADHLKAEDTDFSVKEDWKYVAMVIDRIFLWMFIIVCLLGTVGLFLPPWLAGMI
T1 sequence (P17787 26-502): as the sequence (P17787 26-502) above
T1 sequence (P30532 23-468): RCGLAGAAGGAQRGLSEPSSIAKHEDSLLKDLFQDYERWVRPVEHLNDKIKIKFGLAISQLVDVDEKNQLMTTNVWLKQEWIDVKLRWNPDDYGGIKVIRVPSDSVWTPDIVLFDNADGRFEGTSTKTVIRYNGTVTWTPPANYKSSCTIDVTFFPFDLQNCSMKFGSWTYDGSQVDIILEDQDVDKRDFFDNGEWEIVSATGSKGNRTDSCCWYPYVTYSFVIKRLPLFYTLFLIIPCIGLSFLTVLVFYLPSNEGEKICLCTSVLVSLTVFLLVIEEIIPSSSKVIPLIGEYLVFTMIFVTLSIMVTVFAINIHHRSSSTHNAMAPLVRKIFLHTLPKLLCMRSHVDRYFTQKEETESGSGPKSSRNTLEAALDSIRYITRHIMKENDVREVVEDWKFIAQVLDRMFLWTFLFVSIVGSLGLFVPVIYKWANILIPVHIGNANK

c1cnc2cc3c(cc2n1)[C@@H]1CNC[C@H]3C1 [Chantix, varenicline]
People remaining abstinent after 1 year of a quit attempt (people): approximately 23%

N#Cc1cccc(-c2nc(-c3cccnc3)no2)c1 [NS9283, 3-[3-(3-pyridyl)-1,2,4-oxadiazol-5-yl]benzonitrile]
EC50 (α4β2* nAChRs): ~1000 nM
Intravenous nicotine self-administration behavior (rats): decrease

CC(NC(C)(C)C)C(=O)c1cccc(Cl)c1 (stereo not drawn) [Zyban, bupropion]
People remaining abstinent after 1 year of a quit attempt (people): ~16%

CN1CCC[C@H]1c1cccnc1 [nicotine, (−)-Nicotine hydrogen tartrate salt, reference compound]
Efficacy ([1]; +SR9883 (10 μM)): 87.20 ± 1.68%
nHill of nicotine ([1]; +SR9883 (10 μM)): 1.0749 ± 0.0928
Efficacy ([1]; −SR9883): 96.89 ± 2.82%
nHill of nicotine ([1]; −SR9883): 0.8145 ± 0.0740
Efficacy ([2]; +SR9883 (10 μM)): 92.69 ± 2.19%
nHill of nicotine ([2]; +SR9883 (10 μM)): 1.2934 ± 0.1439
Efficacy ([2]; −SR9883): 100.49 ± 3.89%
nHill of nicotine ([2]; −SR9883): 0.7395 ± 0.0767
